Patent US3954764A, “Dibenzo [b,f]thiepins bearing piperazinyl substitution” (priority 1973, dated 1976)
“Also recorded” adds a separate entry of the source. Where two headings read alike, the source gives them in different places.

Experiments:
[1] = Catalepsy test (i.p., rats; number of cataleptic animals recorded every 30 minutes over 6 hours); format: in vivo, rat; details: rat, in vivo, ip
Protocol: (§1) The following compounds were tested:
(§2) The foregoing compounds were compared to chlorpromazine, a well-known central depressant, especially well known as a neuroleptic agent.
(§3) The test animals are considered to be cataleptic when the homolateral extremities remain in the crossed position for at least 10 seconds. The number of cataleptic animals is recorded every 30 minutes over a 6-hour period. The ED50 is the dose at which 50 percent of the animals are cataleptic.

rats [2] = test: as above; format: in vivo, rat
Protocol: as §1, §2, §3

mice = test: Rotating Rod Test; format: in vivo, mouse; details: for ED50: Mus musculus, po, read-out: ED50 (dose which reduces the holding on period by 50 percent); for Rotating Rod Test activity in words: compared with chlorpromazine
Protocol: In the Rotating Rod Test, the ability of mice to achieve a coordinated motor performance is investigated. After peroral administration of the test substance, the mice are placed upon a horizontal slowly rotating rod and the time they remain on the rod is recorded. The ED50 is that dose which reduces the holding on period of the mice by 50 percent as compared to the holding on period prior to the administration of the test substance.

[3] = test system: homovanillinic acid (turnover of dopamine in the basal ganglions); test: Determination of Homovanillinic Acid; format: in vivo, rat; details: rats; for Increase in HVA, percent: 2 hours before killing, untreated = 100 percent
Protocol: Two hours prior to being killed, rats are injected with the test substance.
Thereafter, the homovanillinic acid is extracted from the supernatant portion of a homogenized mixture of the brains of the treated rats into butyl acetate and later into an aqueous solution and is oxidized with potassium ferric cyanide to a fluorescent dimer. […] The homovanillinic acid titer in untreated rats is arbitrarily set at 100 percent.

"Pole Climbing" Test = format: in vivo, rat; details: rat, in vivo, po; rats, p.o.; higher quotient = greater selectivity of neuroleptic action; read-out: Quotient ED10 (blocking of the unconditioned reaction) / ED50 (blocking of the conditioned reaction)
Protocol: (§4) This test provides information about behavioral reactions of rats. Rats are trained to avoid, by climbing up a vertical pole in the test chamber, an electrical impulse (unconditioned impulse) released via the wire-latticed floor some seconds after an acoustic signal (conditioned impulse).
(§5) The blocking of the conditioned reaction is determined by the parameter ED50 (mg/kg p.o.); the blocking of the unconditioned reaction is determined by a parameter ED10 (mg/kg. p.o.).
(§6) The parameter ED50 (blocking of the conditioned reaction) gives a measure of the neuroleptic strength of action of the test substance. The quotient ED10 (blocking of the unconditioned reaction)/ED50 (blocking of the conditioned reaction) gives a measure of the quality of action of the test substance since, with increasing quotient, a greater selectivity of the neuroleptic action (slighter neurotoxic side-effect) is present.

rats [4] = test: "Pole Climbing" Test; format: in vivo, rat; details: for ED50: Rattus norvegicus, po, read-out: ED50 (blocking of the conditioned reaction); for neuroleptic action in words / quality (selectivity) of the neuroleptic action in words: compared with chlorpromazine
Protocol: as §4, §5, §6

[5] = Acute toxicity in the mouse; details: in vivo, po
[6] = rats, intraperitoneal, 6-hour period, read-out: ED50 (dose at which 50 percent of the animals are cataleptic)

SMILES	TD50 at 6 h [1, 6] [mg/kg]	cataleptic activity in words (rats [2]; rat, in vivo)	ED50 (mice) [mg/kg]	Increase in HVA, percent ([3]; 20 mg/kg p.o.) [%]	selectivity ratio ("Pole Climbing" Test)	ED50 (rats [4]; rats, p.o.) [mg/kg]	LD50 at 24 h [5] [mg/kg]	cataleptic activity in words (rats [2]; as compared to chlorpromazine)	ED50 (mice; mice, peroral) [mg/kg]	Rotating Rod Test activity in words (mice; mice, peroral, maleate)	HVA test activity in words [3]	Increase in HVA, percent ([3]; 50 mg/kg p.o.) [%]	TD50 at 6 h [1] [mg/kg]	Rotating Rod Test activity in words (mice; mice, peroral)	neuroleptic action in words (rats [4]; rats)	quality (selectivity) of the neuroleptic action in words (rats [4]; rats)	Increase in HVA, percent ([3]; 45 mg/kg p.o.) [%]	ED50 (rats [4]) [mg/kg]
CN(C)CCCN1c2ccccc2Sc2ccc(Cl)cc21 [Chlorpromazine, reference compound]	6	does demonstrate cataleptic effect	5	321	2.5	11.8	200	–	–	–	–	–	–	–	–	–	–	–
Cc1ccc2c(c1)CC(N1CCN(CCN3CCCC3=O)CC1)c1cc(Cl)ccc1S2.O=C(O)/C=C\C(=O)O (stereo not drawn) [Product A, 1-{2-[4-(8-chloro-10,11-dihydro-2-methyl-dibenzo[b,f]thiepin-10-yl)-1-piperazinyl]-ethyl}-2-pyrrolidinone maleate]	> 100	–	–	–	–	–	3750	no cataleptic effect	7.3	strong activity; also recorded: approximates that of chlorpromazine	nearly as potent as that of chlorpromazine	295	–	–	–	–	–	–
O=C(O)/C=C\C(=O)O.O=C1OCCN1CCN1CCN(C2Cc3cc(Cl)ccc3Sc3cc(F)ccc32)CC1 (stereo not drawn) [Product B, 3-{2-[4-(2-chloro-7-fluoro-10,11-dihydrodibenzo[b,f]thiepin-10-yl)-1-piperazinyl]-ethyl}-2-oxazolidinone maleate]	> 100	–	–	–	–	–	900	no cataleptic effect	–	–	nearly as potent as that of chlorpromazine	270	–	–	–	–	–	–
Cc1ccc2c(c1)CC(N1CCN(CCN3CCOC3=O)CC1)c1cc(F)ccc1S2 (stereo not drawn) [Product C, 3-{2-[4-(8-fluoro-10,11-dihydro-2-methyl-dibenzo[b,f]thiepin-10-yl)-1-piperazinyl]-ethyl}-2-oxazolidinone]	–	–	–	–	23	14	1880	very weak cataleptic activity	2.1	–	–	235	75	strong activity; also recorded: superior to that of chlorpromazine	lies somewhat below that of chlorpromazine	substantially exceeds that of chlorpromazine	–	–
O=C(O)/C=C\C(=O)O.O=C1OCCN1CCN1CCN(C2Cc3cc(Cl)ccc3Sc3ccc(F)cc32)CC1 (stereo not drawn) [Product D, 3-{2-[4-(2-chloro-8-fluoro-10,11-dihydrodibenzo[b,f]thiepin-10-yl)-1-piperazinyl]-ethyl}-2-oxazolidinone maleate]	45	–	–	–	7.6	–	450	considerably lower cataleptic activity	1	strong activity; also recorded: superior to that of chlorpromazine	nearly as potent as that of chlorpromazine	–	–	–	lies somewhat below that of chlorpromazine	substantially exceeds that of chlorpromazine	300	17
CSc1ccc2c(c1)C(N1CCN(CCN3CCOC3=O)CC1)Cc1cc(C)ccc1S2.O=C(O)/C=C\C(=O)O (stereo not drawn) [Product E, 3-{2-[4-(10,11-dihydro-2-methyl-8-methylthiodibenzo[b,f]thiepin-10-yl)-1-piperazinyl]-ethyl}-2-oxazolidinone maleate]	45	–	–	–	12	–	3750	considerably lower cataleptic activity	–	–	–	255	–	–	lies somewhat below that of chlorpromazine	substantially exceeds that of chlorpromazine	–	25
